Consider nine compounds from US11077090B2, “Compounds and compositions and uses thereof” (Sunovion Pharmaceuticals Inc., priority 2016, dated 2021).

Molecules are shown by their SMILES. Like-named read-outs stand apart in the source and are kept apart here. Some results are limits rather than exact numbers.

For the assay, the system named is compound-treated mice. Nature of the assay: Neuropharmacological assay (SmartCube): behavioral activity signature and minimal effective dose. The format is in vivo. The settings on record: for minimal effective dose: Mus musculus, ip, MED = dose having 50% or more total activity; for AD: ADHD (probability of activity signature) / AG: analgesic (probability of activity signature) / AX: anxiolytic (probability of activity signature) / CE: cognitive enhancer (probability of activity signature) / DP: anti-depressant (probability of activity signature) / MS: mood stabilizer (probability of activity signature) / PS: anti-psychotic (probability of activity signature) / SD: sedative hypnotic (probability of activity signature) / UN: uncharacterized CNS activity (probability of activity signature): i.p. 15 min before test, most efficacious dose(s). An outline of the steps: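 Mice dosed i.p. 15 min before test, compound in N-methyl-2-pyrrolidone/PEG/propylene glycol, 3 doses; video-captured behavior matched to reference-drug signatures, giving per-class probabilities at most efficacious dose. MED from doses typically 0.3–30 mpk, defined as lowest dose with ≥50% total activity.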

The mark [1] stands for this setting: read-out: Potency: minimal effective dose (MED), binned.
[2] abbreviates: read-out: Potency: minimal effective dose (MED).

Turning to `CC[C@@H]1OCc2cccc(Cl)c2[C@@H]1N` (single isomer, unassigned) [Example 218], the “AD: ADHD (probability of activity signature)” value (“AD: ADHD” for short) was “+ (LOQ ≤ + <5%)”, the “AG: analgesic (probability of activity signature)” value (shortened to “AG: analgesic”) is on record as “+ (LOQ ≤ + <5%)”, the “AX: anxiolytic (probability of activity signature)” value (“AX: anxiolytic” for short) was “++ (5% ≤ ++ <25%)” and the “CE: cognitive enhancer (probability of activity signature)” value (“CE: cognitive enhancer” for short) is “++ (5% ≤ ++ <25%)”. In addition, the “DP: anti-depressant (probability of activity signature)” value (“DP: anti-depressant” for short) is on record as “+ (LOQ ≤ + <5%)”, the “MS: mood stabilizer (probability of activity signature)” value (from here on “MS: mood stabilizer”) is “+ (LOQ ≤ + <5%)”, the “PS: anti-psychotic (probability of activity signature)” value (from here on “PS: anti-psychotic”) is recorded as “++ (5% ≤ ++ <25%)” and the “SD: sedative hypnotic (probability of activity signature)” value (“SD: sedative hypnotic” for short) is “+ (LOQ ≤ + <5%)”. In addition, the “UN: uncharacterized CNS activity (probability of activity signature)” value (“UN: uncharacterized CNS activity” below) is given as “++++ (50% ≤ ++++)”. In addition, the minimal effective dose (in general, the smallest amount tested that counted as effective) under setting [1] was < 3 mg/kg.

As for `Cc1ccc2c(c1)[C@H](N)CCOC2` (single isomer, unassigned) [Example 115], the “AD: ADHD” value is given as “+ (LOQ ≤ + <5%)”, the “AG: analgesic” value is reported as “++ (5% ≤ ++ <25%)”, the “AX: anxiolytic” value is recorded as “++ (5% ≤ ++ <25%)” and the “CE: cognitive enhancer” value is “++ (5% ≤ ++ <25%)”. For the same compound, the “DP: anti-depressant” value is reported as “++ (5% ≤ ++ <25%)”, the “MS: mood stabilizer” value is “+ (LOQ ≤ + <5%)”, the “PS: anti-psychotic” value was “+++ (25% ≤ +++ <50%)” and the “SD: sedative hypnotic” value is “++ (5% ≤ ++ <25%)”. In addition, the “UN: uncharacterized CNS activity” value was “+++ (25% ≤ +++ <50%)”. For the same compound, under setting [2], the minimal effective dose was in the range of 3 to 10 mg/kg.

Take `COc1ccc2c(c1)[C@H](N)COC2` (single isomer, unassigned) [Example 121]: the “AD: ADHD” value is “+ (LOQ ≤ + <5%)”, the “AG: analgesic” value is “++ (5% ≤ ++ <25%)”, the “AX: anxiolytic” value is on record as “++ (5% ≤ ++ <25%)” and the “CE: cognitive enhancer” value was “++ (5% ≤ ++ <25%)”. Besides, the “DP: anti-depressant” value is “++ (5% ≤ ++ <25%)”, the “MS: mood stabilizer” value was “+ (LOQ ≤ + <5%)”, the “PS: anti-psychotic” value is “++ (5% ≤ ++ <25%)” and the “SD: sedative hypnotic” value is on record as “++ (5% ≤ ++ <25%)”. The “UN: uncharacterized CNS activity” value was “+++ (25% ≤ +++ <50%)”. For the same compound, the minimal effective dose under setting [2] is < 3 mg/kg.

Regarding `Cl.NC1CCOCc2c(Cl)cccc21` (stereo not drawn) [Example 40], the “AD: ADHD” value is on record as “+ (LOQ ≤ + <5%)”, the “AG: analgesic” value is “++ (5% ≤ ++ <25%)”, the “AX: anxiolytic” value is “+++ (25% ≤ +++ <50%)” and the “CE: cognitive enhancer” value was “++ (5% ≤ ++ <25%)”. Further, the “DP: anti-depressant” value is listed as “+ (LOQ ≤ + <5%)”, the “MS: mood stabilizer” value is reported as “+ (LOQ ≤ + <5%)”, the “PS: anti-psychotic” value is “++ (5% ≤ ++ <25%)” and the “SD: sedative hypnotic” value is on record as “+ (LOQ ≤ + <5%)”. Also, the “UN: uncharacterized CNS activity” value is listed as “++ (5% ≤ ++ <25%)”. Moreover, under setting [2], the minimal effective dose is 3 to 10 mg/kg.

Consider `COc1cccc2c1CO[C@H](C)[C@H]2N.Cl` [Example 235], for which the “AD: ADHD” value is “+ (LOQ ≤ + <5%)”, the “AG: analgesic” value was “+ (LOQ ≤ + <5%)”, the “AX: anxiolytic” value was “++ (5% ≤ ++ <25%)” and the “CE: cognitive enhancer” value was “+ (LOQ ≤ + <5%)”. The “DP: anti-depressant” value is reported as “+ (LOQ ≤ + <5%)”, the “MS: mood stabilizer” value was “+ (LOQ ≤ + <5%)”, the “PS: anti-psychotic” value was “+ (LOQ ≤ + <5%)” and the “SD: sedative hypnotic” value is reported as “+ (LOQ ≤ + <5%)”. In addition, the “UN: uncharacterized CNS activity” value was “+ (LOQ ≤ + <5%)”. Moreover, the minimal effective dose under setting [1] is > 30 mg/kg.

With `Cl.NC1COCc2ccc3c(c21)CCCC3` (stereo not drawn) [Example 19, 2,4,7,8,9,10-Hexahydro-1H-benzo[f]isochromen-1-amine hydrochloride], the “AD: ADHD” value is “+ (LOQ ≤ + <5%)”, the “AG: analgesic” value is on record as “++ (5% ≤ ++ <25%)”, the “AX: anxiolytic” value was “+++ (25% ≤ +++ <50%)” and the “CE: cognitive enhancer” value is on record as “++ (5% ≤ ++ <25%)”. Besides, the “DP: anti-depressant” value is on record as “+ (LOQ ≤ + <5%)”, the “MS: mood stabilizer” value is “+ (LOQ ≤ + <5%)”, the “PS: anti-psychotic” value is “++ (5% ≤ ++ <25%)” and the “SD: sedative hypnotic” value is “++ (5% ≤ ++ <25%)”. Moreover, the “UN: uncharacterized CNS activity” value is recorded as “+++ (25% ≤ +++ <50%)”. Also, the minimal effective dose under setting [2] was 10 to 30 mg/kg.

For `Cc1ccc2c(c1)[C@@H](N)[C@@H](C)OC2` (single isomer, unassigned) [Example 158], the “AD: ADHD” value is reported as “+ (LOQ ≤ + <5%)”, the “AG: analgesic” value was “++ (5% ≤ ++ <25%)”, the “AX: anxiolytic” value is “++ (5% ≤ ++ <25%)” and the “CE: cognitive enhancer” value is given as “++ (5% ≤ ++ <25%)”. Further, the “DP: anti-depressant” value is reported as “++ (5% ≤ ++ <25%)”, the “MS: mood stabilizer” value was “+ (LOQ ≤ + <5%)”, the “PS: anti-psychotic” value is listed as “+++ (25% ≤ +++ <50%)” and the “SD: sedative hypnotic” value is “++ (5% ≤ ++ <25%)”. Moreover, the “UN: uncharacterized CNS activity” value is on record as “++ (5% ≤ ++ <25%)”. Also, the minimal effective dose under setting [1] fell in the range of 3 to 10 mg/kg.

`Cc1ccc(C)c2c1COCC2N.Cl` (stereo not drawn) [Example 47, 5,8-Dimethylisochroman-4-amine hydrochloride]: the “AD: ADHD” value is “+ (LOQ ≤ + <5%)”, the “AG: analgesic” value is “++ (5% ≤ ++ <25%)”, the “AX: anxiolytic” value is reported as “++ (5% ≤ ++ <25%)” and the “CE: cognitive enhancer” value is on record as “++ (5% ≤ ++ <25%)”. The “DP: anti-depressant” value is recorded as “++ (5% ≤ ++ <25%)”, the “MS: mood stabilizer” value was “++ (5% ≤ ++ <25%)”, the “PS: anti-psychotic” value was “++ (5% ≤ ++ <25%)” and the “SD: sedative hypnotic” value was “+ (LOQ ≤ + <5%)”. The “UN: uncharacterized CNS activity” value is “++++ (50% ≤ ++++)”. In addition, the minimal effective dose under setting [2] is < 3 mg/kg.

Take `N[C@@H]1COCc2ccc(F)cc21` (single isomer, unassigned) [Example 113]: the “AD: ADHD” value is reported as “+ (LOQ ≤ + <5%)”, the “AG: analgesic” value is on record as “++ (5% ≤ ++ <25%)”, the “AX: anxiolytic” value is “++ (5% ≤ ++ <25%)” and the “CE: cognitive enhancer” value is reported as “++ (5% ≤ ++ <25%)”. The “DP: anti-depressant” value is listed as “++ (5% ≤ ++ <25%)”, the “MS: mood stabilizer” value is given as “+ (LOQ ≤ + <5%)”, the “PS: anti-psychotic” value is listed as “++ (5% ≤ ++ <25%)” and the “SD: sedative hypnotic” value is “+ (LOQ ≤ + <5%)”. Moreover, the “UN: uncharacterized CNS activity” value was “+++ (25% ≤ +++ <50%)”. Besides, the minimal effective dose under setting [2] is 3 to 10 mg/kg.
